{
  "source": "patent US9156855B2",
  "about": "“Regulation of nitric oxide release and biofilm development” (Newsouth Innovation Pty Limited, priority 2011, dated 2015)",
  "key": {"[1]": {"test_system": "extracellular β-lactamases of P. aeruginosa", "format": "biochemical", "conditions": "P. aeruginosa culture treated 1 h; imipenem 0.5 μg/ml or ampicillin 100 μg/ml", "procedure": "(c) Nitric oxide release in the presence of supernatants of P. aeruginosa cultures grown for 5 h in the absence of antibiotic then treated for 1 h with extracellular β-lactamase-inducing imipenem a 0.5 μg/ml (thick line) or ampicillin at 100 μg/ml (dotted line). Arrows indicate addition of the following to a reaction vial containing 10 mL Tris buffer at pH 7.0: (i) 10 μL of 150 mM Compound 15, (ii) 500 μL supernatant, (iii) 500 μL supernatant, (iv) PTIO."}, "[2]": {"test_system": "P. aeruginosa PAO1 wild type cells", "test": "Planktonic growth inhibition, minimum inhibitory concentration", "format": "cell-based", "conditions": "M9 minimal medium, 20 h growth, OD600nm of 35% or less"}, "[3]": {"test_system": "Established P. aeruginosa biofilms", "test": "Anti-biofilm efficacy of tobramycin or ciprofloxacin with compound 21 (Table 1)", "format": "cell-based", "conditions": "tobramycin 80 μg/mL or ciprofloxacin 5 μg/mL, 1 h, mean ± SEM", "from_the_text": "Values represent the log-fold reductions in cfu compared to control biofilms and are the mean of two independent experiments (±SEM)."}, "[4]": {"test_system": "P. aeruginosa NSGFP reporter strain (nirS-GFP)", "format": "cell-based", "conditions": "control treatments alone", "procedure": "To study nitric oxide release in intact cells of P. aeruginosa, the P. aeruginosa NSGFP reporter strain was used (Barraud et al., 2009). This strain harbours a gene reporter construct that expresses green fluorescent protein (GFP) when the nitric oxide-inducible nirS gene is expressed. P. aeruginosa NSGFP cells were grown with or without ampicillin at subinhibitory concentration (50 μg/ml) to induce β-lactamase activity."}, "[5]": {"test_system": "β-lactamase (penicillinase, Sigma Aldrich)", "test": "Amperometric nitric oxide release on exposure to penicillinase", "format": "biochemical", "conditions": "non-NO-releasing cephalosporin alone, in the presence or absence of penicillinase", "procedure": "Arrows indicate addition of the following to a reaction vial containing 10 mL Tris buffer at pH 7.0: (a) 10 μL of 100 mM cephalosporin-3′-diazeniumdiolate, (b) 10 μl 1 U/μl penicillinase, (c) 20 μl 1 U/μl penicillinase, (d) 80 μL of 10 mM free radical scavenger PTIO.\nAmperometric characterization of nitric oxide release from Compound 15. (a) Nitric oxide release in the presence of penicillinase at varying pH. Arrows indicate addition of the following to a reaction vial containing 10 mL Tris buffer at pH 9.0 (thick line), 7.0 (dashed line) or 5.0 (dotted line): (i) 10 μL of 150 mM Compound 15, (ii) 5 μL of 0.1 U/μL penicillinase, (iii) 10 μL of 0.1 U/μL penicillinase, (iv) 80 μL of 10 mM free radical scavenger PTIO. (b) Nitric oxide release in the presence of β-lactamase-expressing P. aeruginosa (thick line) or non-β-lactamase-expressing E. coli (dotted line) cell extracts. Arrows indicate addition of the following to a reaction vial containing 10 mL Tris buffer at pH 7.0: (i) 10 μL of 150 mM Compound 15, (ii) 100 μL cell extract, (iii) 200 μL cell extract, (iv) PTIO. […] The data is representative of at least three independent experiments. […]"}, "[6]": {"test_system": "P. aeruginosa PAO1 wild type biofilms", "test": "Biofilm dispersal assay, 24-well batch culture, PAO1", "format": "cell-based", "conditions": "10 min exposure, alone", "procedure": "P. aeruginosa PAO1 wild type ATCC and MA67 strains, P. aeruginosa FRD1, a mucoid, cystic fibrosis (CF) isolate (Oilman and Chakrabarty, 1981), and the clinical strain P. aeruginosa 18A, which was isolated from CF sputum samples of chronically infected individual in Tasmania (Kirov et al, 2007) were used for biofilm dispersal assays. Biofilms were grown in M9 minimal medium (containing 48 mM Na2HPO4, 22 mM KH2PO4, 9 mM NaCl, 19 mM NH4Cl, pH 7.2, 2 mM MgSO4, 20 mM glucose, and 100 μM CaCl2) in 24-well plates batch cultures at 37° C. with shaking at 200 rpm. After 6 h incubation for PAO1 wild-type biofilms or 24 h incubation for FRD1 and 18A biofilms, treatments were added to each well in less than 1 min per plate and the plates were incubated for a further 10 min at 37° C. with shaking at 200 rpm. Planktonic biomass was quantified by direct measurement of OD600 of the supernatant, and the remaining biofilm biomass was quantified by crystal violet staining (O'Toole and Kolter, 1998)."}},
  "note": "Counter-ions that a name gives are not always drawn. Like-named read-outs stand apart in the source and are kept apart here.",
  "data": [
    {"smiles": "CCN(CC)/[N+]([O-])=N/OCC1=C(C(=O)O)N2C(=O)C(NC(=O)Cc3ccccc3)C2SC1", "note": "(stereo not drawn) [Compound 15]", "values": [
      {"measurement": "melting point", "value": "84 to 86", "unit": "°C"}
    ]},
    {"smiles": "CCN(CC)/[N+]([O-])=N/OCC1=C(C(=O)O)N2C(=O)C(NC(=O)Cc3ccccc3)C2SC1", "note": "(stereo not drawn) (as salt: potassium) [Compound 21]", "values": [
      {"measurement": "melting point", "value": "35 to 37", "unit": "°C"}
    ]},
    {"smiles": "CC1(C)S[C@@H]2[C@H](NC(=O)[C@H](N)c3ccccc3)C(=O)N2[C@H]1C(=O)O", "note": "[ampicillin]", "values": [
      {"measurement": "induction of extracellular β-lactamase expression", "setting": "[1]", "value": "failure of ampicillin to induce expression"}
    ]},
    {"smiles": "CCN(CC)[N+]([O-])=N[O-].[Na+]", "note": "[DEA, O^2-sodium 1-(N,N-diethylamino)diazen-1-ium-1,2-diolate]", "values": [
      {"measurement": "MIC", "setting": "[2]", "value": 16, "unit": "mM"}
    ]},
    {"smiles": "NC[C@H]1O[C@H](O[C@H]2[C@H](O)[C@@H](O[C@H]3O[C@H](CO)[C@@H](O)[C@H](N)[C@H]3O)[C@H](N)C[C@@H]2N)[C@H](N)C[C@@H]1O", "note": "[Tobramycin]", "values": [
      {"measurement": "Log Reduction in Biofilm cfu", "setting": "[3]; Compound 21 0 μM (antibiotic alone)", "value": "2.15 ± 0.16"},
      {"measurement": "Log Reduction in Biofilm cfu", "setting": "[3]; with Compound 21 10 μM", "value": "3.92 ± 0.06"},
      {"measurement": "Log Reduction in Biofilm cfu", "setting": "[3]; with Compound 21 100 μM", "value": "3.58 ± 0.15"}
    ]},
    {"smiles": "CC(=O)OCC1=C(C(=O)O)N2C(=O)[C@@H](NC(=O)Cc3cccs3)[C@H]2SC1", "note": "[cephalothin]", "values": [
      {"measurement": "GFP fluorescence", "setting": "[4]", "value": "no effect on GFP fluorescence"},
      {"measurement": "nitric oxide release", "setting": "[5]", "value": "no release of nitric oxide was observed"},
      {"measurement": "nitric oxide release", "setting": "[5]; listed as cefalotin", "value": "undetectable"},
      {"measurement": "biofilm dispersal", "setting": "[6]", "value": "did not induce significant dispersal events"},
      {"measurement": "MIC", "setting": "[2]; Pseudomonas aeruginosa, PAO1, read-out: MIC", "value": 16, "unit": "mM"}
    ]}
  ]
}
